In one test the test system is CF1 male mice. As to the kind of experiment: Mouse liver lipid content. Type of test: in vivo. The note with it: 16 days. How it is done: In CF1 male mice that had been administered test drugs for 16 days, the liver, small intestine and fecal materials (24 hr collection) were removed and a 10% homogenate in 0.25M sucrose+0.001M (ethylenedinitrilo)tetraacetic acid was prepared. An aliquot (2 ml) of the homogenate was extracted by the methods of Floch et al [J. Biol. Chem., 226, 497 (1957)] and Bligh and Dyer [Can. J. Biochem. Physiol., 37, 911 (1957)] and the number of mg of lipid weighed. The lipid was taken up in methylene chloride and the cholesterol level triglyceride levels, neutral lipid content and phospholipid content were determined.
Data are expressed in the Table 2-7 as percent of control ± the standard deviation. The probable significant level (P) between each test group and the control group was determined by the Student's "t" test.

Test [1] deals with Ehrlich ascites lysate protein synthesis. As to the kind of experiment: Initiation/elongation of Ehrlich ascites lysate protein synthesis. Type of test: biochemical, mouse. The following applies: compared with pyrocatechol violet and emetine. How it is done:
An in vitro method was used to determine if compound I was an initiation or an elongation inhibitor of Ehrlich ascites lysate protein synthesis by comparing inhibition with known standards, pyrocateochol violet and emetine, using 1 μCi ^3 H-leucine (24.7 Ci/mmol). The reaction medium was spotted on Whatman #1 filter paper disks, which after drying were treated for 10 min in boiling 5% trichloroacetic acid, for 10 min in cold 5% trichloroacetic acid and washed with cold 5% trichloroacetic acid, ether/ethanol (4:1) and ether. The disks were dried and counted.

Turning to “{Cu[(CH3)3 N.BH2 CO2 ]2.(CH3)3 N.BH2 COOH} [Compound I]”, in the test with CF1 male mice (2.5 mg/kg), the Cholesterol is 71 ± 6% of control, the “Mg of Lipid” value is on record as 82 ± 5% of control, the “Neutral Lipids” value is recorded as 79 ± 5% of control and the Phospholipids is 67 ± 6% of control. Also, in the test with CF1 male mice (2.5 mg/kg), the Protein was 105 ± 6% of control and the Triglycerides is 40 ± 3% of control. Further, in the test on CF1 male mice (5.0 mg/kg), the Cholesterol is reported as 74 ± 7% of control, the “Mg of Lipid” value is listed as 85 ± 6% of control, the “Neutral Lipids” value was 86 ± 5% of control and the Phospholipids is given as 92 ± 7% of control. In addition, in the test with CF1 male mice (5.0 mg/kg), the Protein is 92 ± 5% of control and the Triglycerides is on record as 38 ± 4% of control. Further, in the test with CF1 male mice (10.0 mg/kg), the Cholesterol was 77 ± 7% of control, the “Mg of Lipid” value is listed as 95 ± 6% of control, the “Neutral Lipids” value is 87 ± 4% of control and the Phospholipids is listed as 152 ± 8% of control. Further, in the test on CF1 male mice (10.0 mg/kg), the Protein is on record as 101 ± 8% of control and the Triglycerides is reported as 36 ± 5% of control. For the same substance, in test [1], the “inhibition of protein synthesis of Ehrlich ascites lysates (initiation vs elongation)” value is “lag of several minutes before inhibition is observed”.
